This passage reports relative viability results from the supplement of paper PMC10883282.

± gives the standard deviation of the averaged measurements.

The subject of the assay is VA-ES-BJ. Description: relative viability vs DMSO control (72 h) (fraction); higher = more viable cells. The method, boiled down:
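Densities for seeding sarcoma cell lines into 384-well plates were set to give 80–90% confluence. After 24 h, 2.5 µl of serially diluted compound from source plates of 10 mM to 0.0002 mM went in, and plates stayed 72 h at 37 °C in 5% CO2 with 0.1% DMSO vehicle and a 5 µM positive control. Percent growth from ATPLite readings, averaged over up to triplicate wells, served as relative viability, rescaled so 1 means full and 0 means none.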

`C=CC(=O)Nc1cccc(Oc2nc(Nc3ccc(N4CCN(C)CC4)cc3)nc3ccsc23)c1` [Olmutinib] yielded a relative viability (0.00017 µM) of 1.01 ± 0.052; a relative viability (0.00051 µM) of 1.01 ± 0.029; a relative viability (0.00152 µM) of 1.01 ± 0.029; a relative viability (0.00457 µM) of 1.01 ± 0.027; a relative viability (0.01372 µM) of 1.02 ± 0.043; a relative viability (0.04115 µM) of 1 ± 0.039. Also, the relative viability by setting is: (0.1235 µM) 0.996 ± 0.052; (0.3704 µM) 0.96 ± 0.065; (1.111 µM) 0.905 ± 0.06; (3.333 µM) 0.786 ± 0.038; (10 µM) 0.534 ± 0.013.

Consider `CNC(=O)c1cc(Oc2ccc(NC(=O)Nc3ccc(Cl)c(C(F)(F)F)c3)c(F)c2)ccn1` [Regorafenib], for which the relative viability by setting is: (0.00017 µM) 1.13 ± 0.018; (0.00051 µM) 1.15 ± 0.032; (0.00152 µM) 1.1 ± 0.019; (0.00457 µM) 1.083 ± 0.0058; (0.01372 µM) 1.11 ± 0.035; (0.04115 µM) 1.08 ± 0.023. Also, the relative viability was 1.18 ± 0.048 (0.1235 µM); 1.19 ± 0.08 (0.3704 µM); 1.21 ± 0.072 (1.111 µM); 1.24 ± 0.12 (3.333 µM); 0.684 ± 0.048 (10 µM).

For the compound `COc1cc2c(cc1O)CCN[C@]21CS[C@@H]2c3c(OC(C)=O)c(C)c4c(c3[C@H](COC1=O)N1[C@@H]2[C@H]2c3c(cc(C)c(OC)c3O)C[C@@H]([C@@H]1O)N2C)OCO4` [Trabectedin], the relative viability (2 pM) was found to be 1.096 ± 0.0079; the relative viability (5 pM) was determined as 1.09 ± 0.014; the relative viability (15 pM) turned out to be 1.07 ± 0.029; the relative viability (50 pM) came to 1.01 ± 0.046; the relative viability (0.00014 µM) is 0.683 ± 0.012; the relative viability (0.00041 µM) is 0.389 ± 0.1. Further, the relative viability is, setting by setting: (0.0012 µM) 0.239 ± 0.087; (0.0037 µM) 0.183 ± 0.014; (0.011 µM) 0.203 ± 0.018; (200 fM) 1.07 ± 0.024; (600 fM) 1.08 ± 0.032.
